Data: US5464821A, “Small peptidic compounds useful for the treatment of glaucoma” (Carlbiotech, Ltd., priority 1991, dated 1995)
Residues, ends and D or L forms follow the SMILES beside them. *: point of attachment. OBn = c1ccc(CO*)cc1; Acm = CC(=O)NC*

What was measured:
[1] = tested on: water load induced hypertension in the rabbit's eye; assay: water load model, intraocular pressure in the rabbit's eye; format: in vivo
Description: The findings of IOP lowering effects in the stress induced rabbit model have been confirmed and further studied by using another elevated eye pressure rabbit model. In this model, the widely applied water load model, elevation of the intraocular pressure is achieved by injecting a large volume of sterile water intraperitoneally into the rabbits. Following onset of eye drop treatment in one eye while the other eye is treated with saline placebo, the intraocular pressure of both eyes is then measured at various intervals and the .pressure difference between the eyes is taken as an expresion of the pharmaceutical effect.
The studies utilized a "water load" animal model.
Thirty minutes before drug solution instillation, rabbits were injected intraperitonally with 60 ml/kg of sterile distilled water for injection (30° C.) spiked with an antibiotic mixture (Sigma P9032).
At time zero, 50 μl of a drug solution was instilled to one eye and an equal volume of a saline solution was instilled to the other eye. The IOP in each eye was monitored at the time points indicated. The change in IOP at each time point is computed by subtracting the IOP in the dosed eye from that in the undosed-eye.
From these plots were assessed the maximal IOP effect, the time to reach this and the time for returning to a zero or insignificant level of IOP lowering effect. These figures were taken as a measure of potency and duration of effect.
(§1) Peptides were tested for the intraocular pressure lowering or antagonizing effects in the water load model described above or the stress induced antagonizing model respectively, in groups of four to ten rabbits, as described below. The tests were performed on homogeneous groups of randomly sexed rabbits, weight 2.5-3.0 kg, but of different breeds in various laboratories several places in the world. Thus, in some cases intergroup variations were found in the absolute starting pressure of the rabbit's eyes.
(§2) In the case of the water load model structure, each rabbit served as its own reference control for the duration of the experiment, and in the case of the stress induced antagonistic model, each group of rabbits served as reference control, at the beginning and end of 10 stress units. Usually, the peptides were dissolved in plain isotonic saline, but in one case in the waterload model, a TRIS-buffer at physiological pH was included.
50 μl of a 1% solution of the peptides in 0.9% aqueous saline were applied in one eye and 50 μl of 0.9% aqueous saline in the other eye 30 minutes after the intraperitonal water loading and IOP were measured in both eyes for 2 hours and the difference calculated.
50 μl of 1% solution of the peptides in 0.9% isotonic saline containing TRIS-buffer pH 7.4 was applied in one eye and 50 μl of 0.9% isotonic saline containing TRIS-buffer. pH 7.4 in the other eye 30 minutes after the interperitonal water loading and intraocular pressure was measured in both eyes for 2 hours and the difference calculated.

[2] = tested on: stress induced intraocular pressure in the rabbit's eye; assay: stress induced antagonizing model, intraocular pressure in the rabbit's eye; format: in vivo; parameters: key to Antagonizing Effect: Active: the pressure increase following 10 stress units for the treated group on average was found to be smaller than 2 mm Hg and to be significantly less compared to untreated controls; conditions: for Antagonizing Effect: 1% solution in 0.9% aqueous NaCl, 60 μl topically 3 times daily over 5 days, following 10 stress units
Description: The main feature of this clinical model is a stress induced elevation of the IOP in the rabbit eye above the initial and normal value. The stress is exerted, i.e. applied, in the form of measuring the pressure (at 12 hour intervals) with the help of a SHIOTZ-Tonometer, which is loaded with 7.5 grams. The pressure first begins to rise after 5 measurements, i.e. after 21/2 days, and reaches a maximum after 10 measurements, i.e. after 5 days.
Known antiglaucoma drugs lower the intraocular pressure when they are applied after the intraocular pressure (IOP) has clearly been established,in spite of the fact that the trauma, i.e. the measuring of the pressure, continued during the treatment.
Antagonizing of the Intraocular Pressure in the stressed Rabbit's Eyes Model
The compound was a freeze-dried powder, and was applied to the rabbit eye as a powder, or as drops, dissolved in 0.9% NaCl aqueous solution. Negative control was 0.9% NaCl solution in water.
as §1, §2
The peptides were applied topically as a 1% solution in 0.9% aqueous NaCl in aliquots of 60 μl 3 times daily over a period of 5 days.

[3] = from PCT/DK90/00322; cited from earlier work
[4] = tested on: stress induced intraocular pressure in the rabbit's eye; conditions: earlier work in the laboratory of one of the inventors; cited from earlier work
[5] = single dose 50 μl of 1% solution in 0.9% aqueous saline in one eye, saline in the other, IOP measured for 2 hours

## CC[C@@H]1C(=O)OC[C@@H]1Cc1cncn1C [pilocarpine, reference compound]
[1]; 2.6% solution, positive reference control
  pressure lowering effect in the water load model (in words): gave a similar response to some of the preferred compounds

## CC(=O)NCC(=O)NCC(=O)N[C@H](C(N)=O)C(C)C [Ac-Gly-Gly-Val-NH2] (Ac-Gly-Gly-Val-NH2)
[1]; [5]
  Pressure Lowering Effect: Active
[2]
  Antagonizing Effect: Active

## CC(C)[C@H](NC(=O)CCN)C(=O)OCc1ccccc1 [H-β-Ala-Val-OBzl, β-alanyl L-valine Benzylester]
[1]; single dose 50 μl of 1% solution in 0.9% isotonic saline containing TRIS-buffer pH 7.4, IOP measured for 2 hours
  Pressure Lowering Effect: Active

## CC(C)C[C@H](NC(=O)[C@@H](N)CC(N)=O)C(=O)NCC(=O)N[C@H](C(N)=O)C(C)C [H-Asn-Leu-Gly-Val-NH2] (H-NLGV-NH2)
[2]
  Antagonizing Effect: Active

## CC(=O)NCSC[C@H](NC(=O)[C@@H](NC(=O)CNC(=O)[C@H](CC(C)C)NC(=O)[C@@H](N)CC(N)=O)C(C)C)C(N)=O [HAsnLeuGlyValCys(Acm)NH2, H-Asn-Leu-Gly-Val-Cys(Acm)-NH2] (H-NLGVC(Acm)-NH2)
[3]
  penetration of the sclera of the eye: penetrate the sclera of the eye

## CC(C)[C@H](NC(=O)CN)C(=O)N[C@@H](Cc1ccc(O)cc1)C(N)=O [H-Gly-Val-Tyr-NH2] (H-Gly-Val-Tyr-NH2)
[1]; [5]
  Pressure Lowering Effect: Active
[2]
  Antagonizing Effect: Active

## CC(C)[C@H](NC(=O)CN)C(=O)OCc1ccccc1 [H-Gly-Val-OBzl, Glycyl-L-Valine-Benzylester] (H-Gly-Val-OBn)
[1]; [5]
  Pressure Lowering Effect: Active
[2]
  Antagonizing Effect: Active
[2]; stress induced model
  antagonizing effect / efficacy in the stress induced rabbit model (in words): good efficacy

## CC(C)(C)NC[C@H](O)COc1nsnc1N1CCOCC1 [timolol]
[4]
  pressure lowering effect of known drugs in the stress model: pressure lowering effect

## CC(C)[C@H](NC(=O)CNC(=O)CNC(=O)[C@@H](N)CC(N)=O)C(N)=O [H-Asn-Gly-Gly-Val-NH2] (H-NGGV-NH2)
[2]
  Antagonizing Effect: Active

## CCOC(=O)[C@@H](NC(=O)CNC(=O)CN)C(C)C [H-Gly-Gly-Val-OEt] (H-Gly-Gly-Val-OEt)
[2]
  Antagonizing Effect: Active

## CC(C)C[C@H](NC(=O)[C@@H](N)CC(N)=O)C(=O)NCC(=O)N[C@@H](Cc1ccc(O)cc1)C(N)=O [H-Asn-Leu-Gly-Tyr-NH2] (H-NLGY-NH2)
[2]
  Antagonizing Effect: Active
